The molecules below were run on human neutrophil adhesion to TNF-α-stimulated human umbilical vein endothelial cells (HUVEC) (assay: Modified method: inhibition of human neutrophil adhesion to TNF-α-stimulated human umbilical vein endothelial cells (calcein-labeled neutrophils)). Conditions: 33 μM, neutrophils labeled with calcein, read-out: Adhesion ECA, % inhibition.
Type: cell-based
Procedure: The 3-thiol, thioether, amino, alkylamino, or arylamino-benzo[b]thiophene-2-carboxamides and 3-alkoxy, aryloxy, thiol, thioether, amino, alkylamino, or arylamino-benzofuran-2-carboxamides have been shown in an in vitro assay to prevent the adhesion of neutrophils to human umbilical vein endothelial cells (HUVECS) stimulated with TNF-α. In this assay, HUVECS are stimulated with TNF-α for 4 hours, after which the cells are assayed for their ability to adhere to human neutrophils labeled with either ^51 Cr or calcein, a fluorescent dye. The details of this assay are described in the DETAILED DESCRIPTION.
Neutrophils were isolated from anticoagulant-treated venous blood obtained from healthy human volunteers according to the method of Ferrante and Thong [J. Immunol. Methods 24, 389-93 (1978)]. The cell preparations consisted of greater than 98% neutrophils.
Modified Method for Determining the Inhibition of Human Neutrophil Adhesion to TNF-α, IL-1α, and LPS Stimulated Human Umbilical Vein Endothelial Cells
The previous assay using ^51 Cr labeled human neutrophils has been modified. The neutrophils are now labeled with the fluorescent dye calcein. The current method allows for quantification of neutrophil adherence by fluorescence spectroscopy.
Second passage HUVEC (Clonetics Corporation, San Diego, Calif., CC-2617) were seeded into Coring (Corning glass works, Corning, N.Y.) 96-well cell culture plates at approximately 5×10^3 cells/well and grown to confluency in supplemented endothelial basal medium (EBM, MCDB-131, Clonetics, 10 ng/mL EGF, 1 μg/mL hydrocortisone, 0.4% bovine brain extract, 5% Fetal Bovine Serum). One day prior to running the assay, typically 3 days postseeding, the cultures were refed with 0.2 mL/well supplemented EBM (S-EBM).
Test compounds were prepared as 10 mL stock solutions at a concentration of 1.0 mM. The compounds were initially solubilized in 0.1 mL DMSO followed by the addition of 9.9 mL S-EBM. The drug preparations were then diluted in one step to a concentration of 66.6 μM or 200 μM. Solubilizations and dilutions were performed in polystyrene containers.
Recombinant human tumor necrosis factor-α (TNF, Genzyme, Boston, Mass., code TNF-H) was prepared at 400 U/mL in S-EBM. Stock TNF was prepared to 20,000 U/mL in Delbecco's phosphate-buffered saline (PBS, Gibco, Grand Island N.Y.) plus 0.1% BSA and stored at -70° C. HUVEC were washed one time with 0.2 mL warm unsupplemented EBM and then stimulated for 4hours at 37° C. with 200 U/mL TNF in the presence of 33.3 μM or 100 μM test compound. This was accomplished by adding 0.1 mL of 400 U/mL TNF and 0.1 mL 66.6 μM or 0.1 mL of 200 μM test compound. These additions were done slowly as to not disrupt the HUVEC monolayer. Each compound was tested in six wells. Unstimulated (vehicle control) and TNF-stimulated without test compound treatments were also run in each plate.
One hour prior to adding the neutrophils (isolated as previously described) to the HUVEC, neutrophils (5×10^6 /mL) were labeled for 30 minutes at 37° C. with 5 μM calcine-AM (Molecular Probes, Eugene, Oreg.) in Hanks' balanced salt solution plus 0.45% BSA. Stock calcein was prepared to 5mM in anhydrous DMSO and stored desiccated at -20° C. At the end of the incubation the cells were washed two times in cold HBSS and resuspended to a final concentration of 1×10^6 cells/mL in unsupplemented EBM.
At the end of the 4-hour stimulation and immediately prior to the addition of the neutrophils to the HUVEC monolayer, the plates were washed with 0.2 ml warm unsupplemented EBM to remove TNF and drug. Neutrophils (1×10^5 cells) were slowly added to each of the treated wells and incubated for 30 minutes at 37° C. At the end of the incubation the plates were washed two times with 0.2 mL warm unsupplemented EBM followed by a final addition of 0.1 mL for plate scanning.
The fluorescence was determined using a Millipore Cytofluor 2300 system (excitation=480, emission=530, sensitivity=4). […]

Which inhibition at 33 µM does the source give for COc1ccc2sc(C(N)=O)c(S(=O)(=O)C(C)C)c2c1 [Example 3, 5-Methoxy-3-[(1-methylethyl)sulfonyl]benzo[b]thiophene-2-carboxamide] here?
Its inhibition at 33 µM is 32%.

Which inhibition at 33 µM does the source give for COc1ccc2sc(C(N)=O)c(SCc3ccccc3)c2c1 [Example 6, 5-Methoxy-3-[(phenylmethyl)thio]benzo[b]thiophene-2-carboxamide] here?
The inhibition at 33 µM was 35%.

With COC(=O)c1ccc(NC(=O)c2sc3ccc(OC)cc3c2SC(C)C)cc1 [Example 7, Methyl 4-[[[5-methoxy-3-[(1-methylethyl)thio]benzo[b]thien-2yl]carbonyl]amino]benzoate] as the molecule, how does the inhibition at 33 µM read?
The inhibition at 33 µM was 19%.

How did the inhibition at 33 µM turn out when COc1ccc2sc(C(=O)Nc3ccc(C(=O)O)cc3)c(SC(C)C)c2c1 [Example 8, 4-[[[5-Methoxy-3[(1-methylethyl)thio]benzo[b]thien-2yl]carbonyl]amino]benzoic acid] was run?
Its inhibition at 33 µM is 13%.

For COc1ccc2sc(C(N)=O)c(S)c2c1 [Example 9, 3-Mercapto-5-methoxybenzo[b]thiophene-2-carboxamide], which inhibition at 33 µM is on record?
Its inhibition at 33 µM is 15%.

Which inhibition at 33 µM does the source give for COC(=O)CCSc1c(C(N)=O)sc2ccc(OC)cc12 [Example 10, Methyl 3-[[2-(aminocarbonyl)-5-methoxybenzo[b]thien-3-yl]thio]propanoate] here?
The inhibition at 33 µM was 55%.

How did the inhibition at 33 µM turn out when COc1ccc2sc(C(N)=O)c(SCCN3CCOCC3)c2c1 [Example 11, 5-Methoxy-3-[[2-(4-morpholinyl)ethyl]thio]benzo[b]thiophene-2-carboxamide] was run?
Its inhibition at 33 µM is 27%.

For CC(C)Sc1c(C(N)=O)sc2cccc(Cl)c12 [Example 12, 4-Chloro-3-[(1-methylethyl)thio]benzo[b]thiophene-2-carboxamide], which inhibition at 33 µM is on record?
Its inhibition at 33 µM is 34%.

COC(=O)CCCCSc1c(C(N)=O)sc2ccc(OC)cc12 [Example 13] was tested. Which inhibition at 33 µM did it give?
Its inhibition at 33 µM is 21%.

For COc1ccc2sc(C(N)=O)c(SCCCCC(=O)O)c2c1 [Example 14], which inhibition at 33 µM is on record?
The inhibition at 33 µM was 37%.

For COc1ccc2sc(C(N)=O)c(SCC(=O)O)c2c1 [Example 15, [[2-(Aminocarbonyl)-5-methoxybenzo[b]thien-3-yl]thio]acetic acid], which inhibition at 33 µM is on record?
The inhibition at 33 µM was 7%.

Which inhibition at 33 µM does the source give for COC(=O)c1ccc(CSc2c(C(N)=O)sc3ccc(OC)cc23)cc1 [Example 16, Methyl 4-[[[2-(aminocarbonyl)-5-methoxybenzo[b]thien-3-yl]thio]methyl]benzoate] here?
Its inhibition at 33 µM is 10%.

Which inhibition at 33 µM does the source give for CC(C)Sc1c(C(N)=O)sc2ccc(OCc3ccccc3)cc12 [Example 17, 3-[(1-Methylethyl)thio]-5-(phenylmethoxy)benzo[b]thiophene-2-carboxamide] here?
Its inhibition at 33 µM is 24%.

With CN(C)c1c(C(N)=O)sc2cccc(Cl)c12 [Example 18, 4-Chloro-3-(dimethylamino)benzo[b]thiophene-2-carboxamide] as the molecule, how does the inhibition at 33 µM read?
The inhibition at 33 µM was 10%.

For COc1cccc2sc(C(N)=O)c(N)c12 [Example 19, 3-Amino-4-methoxybenzo[b]thiophene-2-carboxamide], which inhibition at 33 µM is on record?
The inhibition at 33 µM was 30%.

For COc1cccc2sc(C(N)=O)c(N(C)C)c12 [Example 20, 3-(Dimethylamino)-4-methoxybenzo[b]thiophene-2carboxamide], which inhibition at 33 µM is on record?
Its inhibition at 33 µM is 63%.

With CSc1ccc2sc(C(N)=O)c(N(C)C)c2c1 [Example 21, 3-Dimethylamino-5-(methylthio)benzo[b]thiophene-2-carboxamide] as the molecule, how does the inhibition at 33 µM read?
Its inhibition at 33 µM is 53%.

NC(=O)c1oc2ccccc2c1N [Example 25, 3-Amino-2-benzofurancarboxamide] was tested. Which inhibition at 33 µM did it give?
Its inhibition at 33 µM is 21%.

For NC(=O)c1oc2cccc(Cl)c2c1N [Example 26, 3-Amino-4-chloro-2-benzofurancarboxamide], which inhibition at 33 µM is on record?
The inhibition at 33 µM was 24%.

How did the inhibition at 33 µM turn out when CC(C)Oc1c(C(N)=O)oc2ccc(O)cc12 [Example 38, 5-Hydroxy-3-(1-methylethoxy)-2-benzofurancarboxamide] was run?
The inhibition at 33 µM was 67%.

Same assay, conditions: 100 μM, neutrophils labeled with calcein, read-out: Adhesion ECA, % inhibition

With CNc1c(C(N)=O)[s+]([O-])c2ccc(OC)cc12 (stereo not shown) [Example 22, 5-Methoxy-3-(methylamino)benzo[b]thiophene-2-carboxamide-1-oxide] as the molecule, how does the inhibition at 100 µM read?
Its inhibition at 100 µM is 16%.

How did the inhibition at 100 µM turn out when COc1ccc2c(c1)c(NC(C)C)c(C(N)=O)[s+]2[O-] (stereo not shown) [Example 23, 5-Methoxy-3-[(1-methylethyl)amino]benzo[b]thiophene-2-carboxamide-1-oxide] was run?
The inhibition at 100 µM was 7%.

For COc1ccc2c(c1)c(Nc1ccccc1)c(C(N)=O)[s+]2[O-] (stereo not shown) [Example 24, 5-Methoxy-3-(phenylamino)benzo[b]thiophene-2-carboxamide-1-oxide], which inhibition at 100 µM is on record?
Its inhibition at 100 µM is 21%.

CC(C)Oc1c(C(N)=O)oc2ccc(Cl)cc12 [Example 28, 5-Chloro-3-(1-methylethoxy)-2-benzofurancarboxamide] was tested. Which inhibition at 100 µM did it give?
The inhibition at 100 µM was 52%.

For CC(C)Oc1c(C(N)=O)oc2ccccc12 [Example 29, 3-(1-Methylethoxy)-2-benzofurancarboxamide], which inhibition at 100 µM is on record?
The inhibition at 100 µM was 20%.

COc1ccc2oc(C(=O)NCc3ccccc3)c(OC(C)C)c2c1 [Example 30, 5-Methoxy-3-(1-methylethoxy)-N-(phenylmethyl)-2-benzofurancarboxamide] was tested. Which inhibition at 100 µM did it give?
Its inhibition at 100 µM is 42%.

CC(C)Oc1c(C(=O)Nc2ccccc2)oc2ccc(Cl)cc12 [Example 31, 5-Chloro-3-(1-methylethoxy)-N-phenyl-2-benzofurancarboxamide] was tested. Which inhibition at 100 µM did it give?
The inhibition at 100 µM was 11%.

For CC(C)Oc1c(C(=O)NCc2ccccc2)oc2ccc(Cl)cc12 [Example 32, 5-Chloro-3-(1-methylethoxy)-N-(phenylmethyl)-2-benzofurancarboxamide], which inhibition at 100 µM is on record?
Its inhibition at 100 µM is 95%.

For CC(C)NC(=O)c1oc2ccccc2c1OC(C)C [Example 33, 3-(1-Methylethoxy)-N-(1-methylethyl)-2-benzofurancarboxamide], which inhibition at 100 µM is on record?
The inhibition at 100 µM was 15%.

Which inhibition at 100 µM does the source give for CC(C)Oc1c(C(=O)Nc2ccccc2)oc2ccccc12 [Example 34, 3-(1-Methylethoxy)-N-phenyl-2-benzofurancarboxamide] here?
Its inhibition at 100 µM is 70%.

CC(C)Oc1c(C(=O)NCc2ccccc2)oc2ccccc12 [Example 35, 3-(1-Methylethoxy)-N-(phenylmethyl)-2-benzofurancarboxamide] was tested. Which inhibition at 100 µM did it give?
The inhibition at 100 µM was 61%.

Which inhibition at 100 µM does the source give for COc1ccc2oc(C(N)=O)c(OCc3ccccc3)c2c1 [Example 36, 5-Methoxy-3-(phenylmethoxy)-2-benzofurancarboxamide] here?
The inhibition at 100 µM was 4%.

Which inhibition at 100 µM does the source give for CC(C)Oc1c(C(N)=O)oc2ccc(-c3ccccc3)cc12 [Example 37, 3-(1-Methylethoxy)-5-phenyl-2-benzofurancarboxamide] here?
The inhibition at 100 µM was 68%.

Same assay, conditions: footnote a, neutrophil label not given, IC50 by linear regression from 33.3, 10.0, 3.3 and 1.0 μM, read-out: Adhesion ECA, IC50

Which IC50 does the source give for COc1ccc2oc(C(N)=O)c(OC(C)C)c2c1 [Example 27, 5-Methoxy-3-(1-methylethoxy)-2-benzofurancarboxamide] here?
Its IC50 is 13 µM.
